Results taken from ChEMBL document CHEMBL1201862, “PubChem BioAssay data set” (2004).
Active and inactive are the calls of the source.

How the values were obtained:
[1] = target: T1, Corticotropin-releasing factor receptor 2/Corticotropin-releasing factor-binding protein (Homo sapiens, UniProt P24387+Q13324); test: Dose Response confirmation of uHTS hits for small molecule antagonists of the CRF-binding protein and CRF-R2 receptor complex.; assay type: functional; conditions: read-out: IC50_Mean
T1 sequence (Q13324 whole entry): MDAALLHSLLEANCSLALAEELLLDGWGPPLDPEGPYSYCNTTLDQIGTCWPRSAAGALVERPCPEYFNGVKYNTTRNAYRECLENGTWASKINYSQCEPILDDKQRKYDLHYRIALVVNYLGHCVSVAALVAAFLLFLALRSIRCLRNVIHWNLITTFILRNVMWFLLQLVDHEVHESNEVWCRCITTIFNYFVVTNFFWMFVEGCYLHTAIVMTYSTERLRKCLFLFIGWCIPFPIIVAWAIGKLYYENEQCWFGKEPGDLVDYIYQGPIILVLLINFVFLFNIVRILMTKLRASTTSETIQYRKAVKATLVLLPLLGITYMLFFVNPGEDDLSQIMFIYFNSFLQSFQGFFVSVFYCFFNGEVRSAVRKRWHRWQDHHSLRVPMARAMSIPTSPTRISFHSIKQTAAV
T1 sequence (P24387 whole entry): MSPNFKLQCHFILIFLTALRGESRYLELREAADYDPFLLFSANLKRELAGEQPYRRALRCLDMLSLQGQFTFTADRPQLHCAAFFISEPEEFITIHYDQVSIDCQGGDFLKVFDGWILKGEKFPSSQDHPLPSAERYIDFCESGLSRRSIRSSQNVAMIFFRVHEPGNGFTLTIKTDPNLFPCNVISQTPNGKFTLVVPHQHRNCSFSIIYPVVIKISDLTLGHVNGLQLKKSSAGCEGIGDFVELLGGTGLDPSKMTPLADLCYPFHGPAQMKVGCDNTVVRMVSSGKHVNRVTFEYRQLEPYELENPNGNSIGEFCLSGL

[2] = target: T1, Corticotropin-releasing factor receptor 2/Corticotropin-releasing factor-binding protein; test: activators of CRF receptor 2 with binding protein – uHTS hits, confirmation (AID 602473); assay type: functional; conditions: read-out: EC50_Mean
[3] = CRF-BP/CRF-R2 complex antagonists, dose response, cell-based, uHTS hits, 384-well (AID 651639); assay type: functional, Homo sapiens; conditions: read-out: IC50_Mean
[4] = Vero E6 cell cytotoxicity, dose response, cytotoxicity control for non-replicating M. tuberculosis project, secondary assay (AID 492998); assay type: functional, VeroE6; conditions: Vero C1008
cells = assay type: functional
[5] = THP-1 cell cytotoxicity, dose response, cytotoxicity control for non-replicating M. tuberculosis project (AID 489025); assay type: functional
[6] = target: Nuclear receptor subfamily 5 group A member 2 (Homo sapiens, UniProt O00482); assay type: functional, cell-based;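 also: HEK293T cells transfected with LRH-1 and a StAR promoter luciferase reporter; potency for inhibitors that lower LRH-1 driven reporter light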
Steroidogenic factor 1 = Steroidogenic factor 1 (Homo sapiens, UniProt Q13285); test: Counterscreen for inverse agonists of the liver receptor homolog-1 (LRH-1; NR5A2): Luminescence-based cell-based high throughput dose response assay to identify inverse agonists of the Steroidogenic Factor 1 Nuclear Receptor (SF1; NR5A1).; assay type: functional
[7] = StAR promoter reporter inhibition counter-screen, dose response, counter-screen for LRH-1 inverse agonist project, cell-based, luminescence, luciferase reporter (AID 651969); assay type: functional
[8] = C. albicans growth with fluconazole, confirmation, fluorescence, retest (AID 2467); assay type: functional, cell-based
[9] = NIH-3T3 fibroblast cytotoxicity, dose response, cytotoxicity control, cell-based, fluorescence, Alamar Blue, secondary assay (AID 2327); assay type: functional;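 also: NIH-3T3 mouse fibroblasts cultured with fluconazole at 8 µg/mL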
[10] = target: T2, Short transient receptor potential channel 4 (Mus musculus, UniProt Q9QUQ5); test: mouse TRPC4 channel inhibitors, dose response, cell-based, HEK293 TRPC4/mu-opioid, Fluo-4 calcium (AID 434942); assay type: functional;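 also: potency of inhibitors blocking the TRPC4 calcium response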
T2 sequence (Q9QUQ5 whole entry): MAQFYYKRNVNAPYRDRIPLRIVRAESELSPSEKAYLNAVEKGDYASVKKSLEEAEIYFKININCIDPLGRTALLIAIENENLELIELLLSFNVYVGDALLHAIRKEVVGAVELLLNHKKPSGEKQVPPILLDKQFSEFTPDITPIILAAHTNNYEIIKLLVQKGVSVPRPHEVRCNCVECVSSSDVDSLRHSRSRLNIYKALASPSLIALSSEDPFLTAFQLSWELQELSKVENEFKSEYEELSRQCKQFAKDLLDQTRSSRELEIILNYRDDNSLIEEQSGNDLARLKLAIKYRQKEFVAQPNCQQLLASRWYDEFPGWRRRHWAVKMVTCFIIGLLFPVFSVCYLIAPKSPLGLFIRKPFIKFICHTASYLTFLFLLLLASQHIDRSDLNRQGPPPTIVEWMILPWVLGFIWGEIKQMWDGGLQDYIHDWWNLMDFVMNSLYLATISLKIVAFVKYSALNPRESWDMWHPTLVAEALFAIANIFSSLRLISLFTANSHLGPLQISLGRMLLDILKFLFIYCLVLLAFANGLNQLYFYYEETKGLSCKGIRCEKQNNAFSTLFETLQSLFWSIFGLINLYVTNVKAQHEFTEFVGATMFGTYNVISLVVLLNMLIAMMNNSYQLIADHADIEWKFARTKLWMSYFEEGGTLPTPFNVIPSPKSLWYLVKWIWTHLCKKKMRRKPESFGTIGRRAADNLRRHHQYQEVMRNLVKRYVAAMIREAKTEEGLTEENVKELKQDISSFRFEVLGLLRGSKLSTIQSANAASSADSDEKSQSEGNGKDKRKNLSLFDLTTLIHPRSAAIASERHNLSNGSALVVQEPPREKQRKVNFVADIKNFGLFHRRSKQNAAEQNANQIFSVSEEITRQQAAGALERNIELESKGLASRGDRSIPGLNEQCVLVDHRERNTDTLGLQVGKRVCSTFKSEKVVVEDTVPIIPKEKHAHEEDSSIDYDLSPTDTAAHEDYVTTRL

Troponin, cardiac muscle = Troponin, cardiac muscle (Homo sapiens, UniProt P19429+P45379+P63316); test: Fluorescence-based biochemical high throughput dose response assay for activators of the calcium sensitivity of cardiac Regulated Thin Filaments (RTF). [Related pubchem assays (depositor defined):AID493008, AID493018, AID504382, AID504383]; assay type: protein-complex assay
Protein RecA = target: T3, Protein RecA (Mycobacterium tuberculosis, UniProt P9WHJ3); test: Fluorescence Cell-Free Homogeneous Dose Retest to Identify Inhibitors of RecA-Intein Splicing Activity. [Related pubchem assays (depositor defined):AID2097, AID2223, AID489010, AID492950]; assay type: functional
T3 sequence (P9WHJ3 whole entry): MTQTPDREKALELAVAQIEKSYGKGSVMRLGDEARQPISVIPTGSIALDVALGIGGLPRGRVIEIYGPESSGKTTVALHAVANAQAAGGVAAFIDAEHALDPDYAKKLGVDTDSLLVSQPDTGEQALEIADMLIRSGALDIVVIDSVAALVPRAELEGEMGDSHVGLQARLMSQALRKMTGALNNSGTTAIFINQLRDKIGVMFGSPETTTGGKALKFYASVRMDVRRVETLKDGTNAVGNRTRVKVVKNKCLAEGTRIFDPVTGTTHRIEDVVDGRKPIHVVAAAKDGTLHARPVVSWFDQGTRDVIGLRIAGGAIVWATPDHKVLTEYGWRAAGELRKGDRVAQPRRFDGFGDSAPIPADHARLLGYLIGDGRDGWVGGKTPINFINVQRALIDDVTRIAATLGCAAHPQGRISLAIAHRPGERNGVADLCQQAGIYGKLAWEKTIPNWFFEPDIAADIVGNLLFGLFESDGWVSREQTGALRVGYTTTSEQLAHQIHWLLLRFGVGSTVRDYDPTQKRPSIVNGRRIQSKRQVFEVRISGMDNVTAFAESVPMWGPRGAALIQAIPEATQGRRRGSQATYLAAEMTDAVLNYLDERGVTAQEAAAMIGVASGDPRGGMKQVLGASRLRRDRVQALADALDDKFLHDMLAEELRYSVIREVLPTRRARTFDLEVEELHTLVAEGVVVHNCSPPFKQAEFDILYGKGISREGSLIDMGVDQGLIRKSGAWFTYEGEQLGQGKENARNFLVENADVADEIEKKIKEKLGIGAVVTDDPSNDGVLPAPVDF

[11] = target: T4, Replicative DNA helicase DnaB (Mycobacterium tuberculosis, UniProt P9WMR3); test: DnaB intein splicing inhibitors, dose response, biochemical, cell-free fluorescence (AID 449749); assay type: functional
T4 sequence (P9WMR3 whole entry): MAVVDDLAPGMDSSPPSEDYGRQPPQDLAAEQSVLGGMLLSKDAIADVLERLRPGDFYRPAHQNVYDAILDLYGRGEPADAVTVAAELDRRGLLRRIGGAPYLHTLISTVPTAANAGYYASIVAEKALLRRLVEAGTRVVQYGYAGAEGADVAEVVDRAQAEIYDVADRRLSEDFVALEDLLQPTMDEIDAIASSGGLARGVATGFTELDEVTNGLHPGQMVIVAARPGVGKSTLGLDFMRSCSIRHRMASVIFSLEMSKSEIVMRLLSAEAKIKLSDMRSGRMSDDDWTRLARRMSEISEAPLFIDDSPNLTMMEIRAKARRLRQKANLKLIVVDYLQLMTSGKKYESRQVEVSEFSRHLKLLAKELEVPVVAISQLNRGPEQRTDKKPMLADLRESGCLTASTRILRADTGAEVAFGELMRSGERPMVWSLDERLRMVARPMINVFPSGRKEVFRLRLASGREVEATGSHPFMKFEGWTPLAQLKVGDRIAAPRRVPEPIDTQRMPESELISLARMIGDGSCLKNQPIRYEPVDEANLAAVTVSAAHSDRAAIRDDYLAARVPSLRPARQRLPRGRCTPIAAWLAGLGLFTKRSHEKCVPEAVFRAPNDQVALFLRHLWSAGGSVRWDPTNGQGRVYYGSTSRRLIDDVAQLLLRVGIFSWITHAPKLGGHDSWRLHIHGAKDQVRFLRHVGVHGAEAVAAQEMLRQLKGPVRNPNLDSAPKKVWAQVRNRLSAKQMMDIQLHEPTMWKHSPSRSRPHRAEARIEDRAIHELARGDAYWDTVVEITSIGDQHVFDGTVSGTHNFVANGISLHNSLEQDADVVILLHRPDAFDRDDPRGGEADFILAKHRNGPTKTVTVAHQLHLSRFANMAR

[12] = HeLa cell cytotoxicity, dose response, cytotoxicity control for MgcRacGAP inhibitor project (AID 624300); assay type: functional
[13] = target: T5, Rac GTPase-activating protein 1 (Homo sapiens, UniProt Q9H0H5); test: MgcRacGAP GTPase-activating activity inhibitors, confirmation, biochemical, ADP Hunter fluorescence, primary and confirmatory (AID 624330); assay type: functional
T5 sequence (Q9H0H5 whole entry): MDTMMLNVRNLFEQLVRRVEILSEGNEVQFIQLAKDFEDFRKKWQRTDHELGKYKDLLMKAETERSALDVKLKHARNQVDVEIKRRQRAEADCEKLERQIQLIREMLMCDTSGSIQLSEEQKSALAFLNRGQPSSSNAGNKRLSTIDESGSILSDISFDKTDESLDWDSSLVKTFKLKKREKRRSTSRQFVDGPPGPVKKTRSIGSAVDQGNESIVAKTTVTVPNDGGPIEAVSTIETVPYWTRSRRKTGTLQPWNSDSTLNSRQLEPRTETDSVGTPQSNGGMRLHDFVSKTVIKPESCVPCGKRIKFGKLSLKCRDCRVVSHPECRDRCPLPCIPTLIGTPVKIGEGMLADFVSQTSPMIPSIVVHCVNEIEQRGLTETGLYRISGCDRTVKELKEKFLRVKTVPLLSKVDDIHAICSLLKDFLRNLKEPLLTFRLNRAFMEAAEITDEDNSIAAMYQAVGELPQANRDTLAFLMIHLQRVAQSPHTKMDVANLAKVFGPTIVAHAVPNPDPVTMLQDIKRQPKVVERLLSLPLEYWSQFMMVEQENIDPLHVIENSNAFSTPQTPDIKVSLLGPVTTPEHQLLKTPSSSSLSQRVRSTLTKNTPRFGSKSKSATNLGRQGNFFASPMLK

For COc1ccc(-c2cc3nc(C4CCN(C(=O)OC(C)(C)C)CC4)c(C(=O)O)cn3n2)cc1, the IC50 [1] was 13.1 µM (active), the EC50 [2] was > 53 µM (inactive) and the IC50 [3] was 7.23 µM (active).
In the case of Cc1onc(-c2ccccc2Cl)c1C(=O)ON=C(N)c1ccc([N+](=O)[O-])o1, the CC50 [4] is reported as 14.9 µM (active), the IC50 (cells) is reported as 2.13 µM (active) and the CC50 [5] is reported as 17.9 µM (active). The IC50 [6] was 0.495 µM (active), the IC50 (Steroidogenic factor 1) was 0.309 µM (active) and the IC50 [7] was 35.9 µM (inactive).
In the case of Oc1nc(Nc2ccc3c(c2)OCCO3)nnc1Cc1ccccc1, the EC50 [8] is reported as > 38 µM (not active), the EC50 [9] is reported as > 160 µM (inconclusive) and the IC50 [6] is reported as 35.9 µM (inactive). For the same molecule, the IC50 (Steroidogenic factor 1) was 1.87 µM (active) and the IC50 [7] was 35.9 µM (inactive).
In the case of O=C(O)c1ccc(NC(=S)NC(=O)c2ccc(-c3ccccc3)cc2)cc1, the EC50 [10] is reported as 4.73 µM (active), the IC50 [1] is reported as 6.04 µM (active) and the EC50 (Troponin, cardiac muscle) is reported as > 71.5 µM (inactive). For the same molecule, the EC50 [8] was 1.28 µM (active), the EC50 [2] was > 53 µM (inactive) and the IC50 [3] was 5.93 µM (active). The EC50 [9] was > 150 µM (inactive).
With COc1ccc(N2C(=O)CSC23C(=O)N2c4c(cccc43)C(C)=CC2(C)C)cc1 (stereo unspecified) the IC50 [1] was 11 µM (active), the EC50 (Protein RecA) was 35.6 µM (active) and the EC50 [2] was > 53 µM (inactive). For the same molecule, the IC50 [3] was 4.46 µM (active) and the AC50 [11] was 10.3 µM (active).
For CC(O)(c1ccc(F)c(F)c1)c1nc(-c2ccc(S(C)(=O)=O)cc2)cs1 (stereo unspecified), the IC50 [6] was 11.3 µM (inactive), the IC50 (Steroidogenic factor 1) was 1.91 µM (active) and the IC50 [7] was 35.8 µM (inactive).
For COc1cc(/C=N/NC(=S)NC2CC3CCC2C3)ccc1O (stereo unspecified), the CC50 [12] was 100 µM (active) and the IC50 [13] was 48.8 µM (active).
